Source: patent US12084399B2, “Crystalline tranilast salts and their pharmaceutical use” (NUFORMIX TECHNOLOGIES LIMITED, priority 2018, dated 2024)
≈ marks a conversion by molar mass, not a printed value. Counter-ions that a name gives are not always drawn. Like-named read-outs stand apart in the source and are kept apart here.

Tests used:
[1] = Dissolution study in simulated intestinal fluid (FaSSIF V2); format: physicochemical; details: 50 ml FaSSIF V2, pH 6.5, 37° C.
From the text: For BCS class II drugs, such as tranilast, the rate of dissolution of the drug form used in the gastrointestinal media can be the controlling factor in the overall absorption and thus the bioavailability of an oral drug. This becomes even more influential as the dose of a drug increases. For conditions such as fibrosis or cancer where a higher dose of tranilast may be needed for successful treatment, finding a form of tranilast that has a high dissolution rate is important. […] Pat. […] The dissolution study was carried out using the Pion inForm® instrument. Detection and quantification of tranilast was performed by in-situ UV-spectroscopy using a fibre-optic probe, allowing instantaneous data collection from the point of sample introduction.

[2] = Solid-state photostability study (UV irradiation, HPLC); details: for solid-state photostability (in words): UV irradiation up to 24 hours
Method: A 6-10 mg sample of each of the tranilast forms under investigation was spread over the bottom surface of a clear glass vial.

[3] = Solution photostability study (UV irradiation, HPLC); details: 2 mg dissolved in water (1 ml)
Method: (§1) A 2 mg sample of the four salt forms under investigation were each weighed into a clear glass vial. Each sample was dissolved in water (1 ml).

[4] = for Solubility (mg/ml) in terms of the mass of tranilast dissolved: water pH7.0, 25° C., 24 hours
[5] = pKa values and ΔpKa of tranilast and the salt formers
From the text: When two solid components are successfully crystallised together to form a two-component molecular complex with a new unique solid-state crystalline structure this could result in either a salt or a cocrystal. Whether a salt or a cocrystal is formed is dependent on whether a proton transfer takes place between the two different components of the complex. If a proton is transferred from one component to the other resulting in ionic bonding then a crystalline salt results. If no proton transfer occurs and the components remain in their neutral state, held together only by hydrogen bonds, Van der Waals bonds etc, then a cocrystal is formed. Whether or not proton transfer takes place is governed by the difference in pKa values for the acidic and basic functional groups of each component.

[6] = buffer, 2 mg/ml
Method: as §1

[7] = cited from earlier work
[8] = Solid-state accelerated stability, 40° C. and 75% relative humidity, 7 days, XRPD; format: physicochemical
Method: A study was carried out to examine the physical stability of the crystalline 1:1 tranilast N-methylglucamine salt polymorphs with respect to solid form conversion over time under accelerated conditions. […] After this time each sample was analysed by XRPD to observe any potential form changes.
A study was carried out to examine the physical stability of the 1:1 crystalline tranilast salts with respect to solid form conversion or deliquescence over time under accelerated conditions. […] Each sample was analysed by XRPD to observe any potential form changes.

[9] = Gravimetric vapour sorption (GVS) analysis; format: physicochemical; details: for moisture reversibly absorbed (GVS): across the 90% humidity range at 25° C.
From the text: The moisture sorption isotherm graph obtained for the crystalline 1:1 tranilast N-methylglucamine Form I salt is shown in FIG. 5.
The moisture sorption isotherm graph obtained for the crystalline 1:1 tranilast N-methylglucamine Form II salt is shown in FIG. 10.

[10] = Solid-state stability under high humidity, 25° C. and 100% relative humidity, 7 days, XRPD; format: physicochemical; details: sealed container
Method: A second study was carried out to explore the solid-state stability of the crystalline 1:1 tranilast N-methylglucamine salt polymorphs under high humidity. Forms I and II of 1:1 tranilast N-methylglucamine salt (50 mg) were separately placed in a sealed container at 25° C. and 100% relative humidity and stored under these conditions for 7 days. After this time each sample was analysed by XRPD to observe any potential form changes.

[11] = Solid-state stability under high storage temperature, 90° C., 7 days, XRPD; format: physicochemical; details: oven at 90° C.
Method: A third study was carried out to explore the solid-state stability of the crystalline 1:1 tranilast N-methylglucamine salt polymorphs under high storage temperatures. Forms I and II of 1:1 tranilast N-methylglucamine salt (50 mg) were stored in an oven at 90° C. for 7 days. After this time each sample was analysed by XRPD to observe any potential form changes.

[12] = dissolved or stored in solution, UV exposure; cited from earlier work
[13] = cited from earlier work; remark: listed apart in the source
[14] = Dissolution study in 5% aqueous dextrose solution; format: physicochemical; details: saline or isotonic, thermodynamic from solid, 50 ml 5% aqueous dextrose solution
Method: As this invention also relates to a method of preparing a liquid pharmaceutical formulation of tranilast for delivery, for example, as an injectable formulation, a liquid oral formulation or a nebulised inhaled formulation a study was also carried out to explore the dissolution rates of the crystalline tranilast salts of this invention in a suitable media. As liquid pharmaceutical formulations are usually made up in-situ at the bedside for immediate delivery it is important that these new solid forms of tranilast dissolve almost instantaneously for them to be suitable for use in a liquid pharmaceutical formulation. Whilst liquid oral formulations could be achieved by simply dissolving a drug in water prior to administration (the high aqueous solubility of the new crystalline tranilast salts would make this possible), a liquid formulation for inhaled or intravenous delivery requires the dissolution media to be isotonic. This is often achieved by using saline (0.9% sodium chloride in water) as the liquid formulation media. […] An alternative isotonic media suitable for preparing liquid pharmaceutical formulations for inhaled or intravenous administration is 5% aqueous dextrose solution. […] The results of this study can be seen in FIG. 41.

[15] = exposed to light, listed as pure crystalline tranilast; cited from earlier work
[16] = 600 mg daily dosage, inter-patient variation; cited from earlier work
[17] = cited from earlier work; remark: listed apart in the source
[18] = sealed container, 40° C. and 75% relative humidity, 7 days

## COc1ccc(/C=C/C(=O)Nc2ccccc2C(=O)O)cc1OC.NC(=O)c1cccnc1 [1:1 tranilast nicotinamide cocrystal]
[1]; 30 seconds
  solubility reached after 30 seconds: 2700 µg/mL
[1]; 5 minutes
  solubility after 5 minutes: 1950 µg/mL
[1]; 20 minutes
  solubility after 20 minutes: 1700 µg/mL

## CCNCC [Diethylamine]
[2]; solid state, 2 hrs
  % tranilast remaining after UV exposure: 99.57%
[2]; solid state, 6 hrs
  % tranilast remaining after UV exposure: 99.61%
[2]; solid state, 24 hrs
  % tranilast remaining after UV exposure: 99.63%
[3]; 2 hrs
  % tranilast remaining after UV exposure: 92.06%
[3]; 6 hrs
  % tranilast remaining after UV exposure: 52.30%
[3]; 24 hrs
  % tranilast remaining after UV exposure: 20.72%

## NCCCC[C@H](N)C(=O)O [L-Lysine]
[4]
  Solubility (mg/ml) in terms of the mass of tranilast dissolved: 277 to 283 mg/mL
[2]; solid state, 2 hrs
  % tranilast remaining after UV exposure: 99.35%
[2]; solid state, 6 hrs
  % tranilast remaining after UV exposure: 99.53%
[2]; solid state, 24 hrs
  % tranilast remaining after UV exposure: 99.54%
[3]; 2 hrs
  % tranilast remaining after UV exposure: 92.53%
[3]; 6 hrs
  % tranilast remaining after UV exposure: 55.98%
[3]; 24 hrs
  % tranilast remaining after UV exposure: 21.03%

## NCCCC[C@H](N)C(=O)O [Lysine]
[5]
  ΔpKa: 5.70

## CCNC[C@H](O)[C@@H](O)[C@H](O)[C@H](O)CO [N-ethylglucamine]
[6]; 2 h
  % tranilast remaining after UV exposure: 84.13%
[6]; 6 h
  % tranilast remaining after UV exposure: 58.20%
[6]; 24 h
  % tranilast remaining after UV exposure: 35.90%
[5]
  ΔpKa: 6.27
[7]; protonated basic functional group of the salt former
  pKa: 9.52
[2]; 2 h
  % tranilast remaining after UV exposure: 99.55%
[2]; 6 h
  % tranilast remaining after UV exposure: 99.61%
[2]; 24 h
  % tranilast remaining after UV exposure: 99.47%

## CNC[C@H](O)[C@@H](O)[C@H](O)[C@H](O)CO [N-methylglucamine Form II]
[2]; 2 h
  % tranilast remaining after UV exposure: 99.50%
[2]; 6 h
  % tranilast remaining after UV exposure: 99.58%
[2]; 24 h
  % tranilast remaining after UV exposure: 99.51%

## CNC[C@H](O)[C@@H](O)[C@H](O)[C@H](O)CO [N-methylglucamine]
[5]; pKa (protonated base) - pKa (acid), salt former versus tranilast
  ΔpKa: 6.27

## COc1ccc(/C=C/C(=O)Nc2ccccc2C(=O)O)cc1OC.OCCNCCO [Tranilast Salt Diethanolamine, Crystalline Tranilast Diethanolamine Salt]
[8]; [18]
  deliquescence: no signs of deliquescence
  solid form conversion (XRPD): retained their original crystalline form

## CCNCC.COc1ccc(/C=C/C(=O)Nc2ccccc2C(=O)O)cc1OC [Tranilast Salt Diethylamine, Crystalline 1:1 Tranilast Diethylamine Salt]
[4]
  Solubility (mg/ml) in terms of the mass of tranilast dissolved: 18 to 20 mg/mL
[8]; [18]
  deliquescence: no signs of deliquescence
  solid form conversion (XRPD): retained their original crystalline form
[2]; solid state
  solid-state photostability (in words): photostable

## COc1ccc(/C=C/C(=O)Nc2ccccc2C(=O)O)cc1OC.NCCO [Tranilast Salt Ethanolamine, Crystalline Tranilast Ethanolamine Salt]
[8]; [18]
  deliquescence: no signs of deliquescence
  solid form conversion (XRPD): retained their original crystalline form

## COc1ccc(/C=C/C(=O)Nc2ccccc2C(=O)O)cc1OC.NCCCC[C@H](N)C(=O)O [Tranilast Salt L-Lysine, Crystalline 1:1 Tranilast L-Lysine Salt]
[8]
  deliquescence: no signs of deliquescence
  solid form conversion (XRPD): retained their original crystalline form
[2]; solid state
  solid-state photostability (in words): photostable

## CCNC[C@H](O)[C@@H](O)[C@H](O)[C@H](O)CO.COc1ccc(/C=C/C(=O)Nc2ccccc2C(=O)O)cc1OC [Tranilast Salt N-ethylglucamine, Crystalline 1:1 Tranilast N-Ethylglucamine Salt]
[8]; [18]
  deliquescence: no signs of deliquescence
  solid form conversion (XRPD): retained their original crystalline form

## CNC[C@H](O)[C@@H](O)[C@H](O)[C@H](O)CO.COc1ccc(/C=C/C(=O)Nc2ccccc2C(=O)O)cc1OC [Tranilast Salt N-methylglucamine Form I, Crystalline 1:1 Tranilast N-methylglucamine Form I Salt]
[9]; XRPD of the sample at 0% RH and 90% RH
  form conversion in GVS (XRPD): did not demonstrate any form conversion
[9]; listed as crystalline 1:1 tranilast N-methylglucamine Form I salt
  moisture reversibly absorbed (GVS): 1.4 % w/w
[4]; pH 7
  aqueous solubility (mass of salt): greater than 1000 mg/ml
[10]
  solid form conversion (XRPD): retained their original crystalline form
[8]; [18]
  solid form conversion (XRPD): retained their original crystalline form
[11]
  solid form conversion (XRPD): retained their original crystalline form

## CNC[C@H](O)[C@@H](O)[C@H](O)[C@H](O)CO.COc1ccc(/C=C/C(=O)Nc2ccccc2C(=O)O)cc1OC [Tranilast Salt N-methylglucamine Form II, Crystalline 1:1 Tranilast N-methylglucamine Form II Salt]
[9]; listed as crystalline 1:1 tranilast N-methylglucamine form II salt
  moisture reversibly absorbed (GVS): 0.42 % w/w

## COc1ccc(/C=C/C(=O)Nc2ccccc2C(=O)[O-])cc1OC.O.[K+] [Tranilast Salt Potassium Monohydrate, Crystalline 1:1 Tranilast Potassium Monohydrate Salt]
[8]; [18]
  deliquescence: no signs of deliquescence
  solid form conversion (XRPD): retained their original crystalline form

## COc1ccc(/C=C/C(=O)Nc2ccccc2C(=O)O)cc1OC [Tranilast, 2-[[3-(3,4-dimethoxyphenyl)-1-oxo-2-propenyl]amino] benzoic acid]
[12]
  photochemical stability in solution (in words): photochemically unstable
[13]; pH 1.2 buffer solution
  solubility in pH 1.2 buffer solution: 0.7 μg/ml
[13]; water
  solubility in water: 14.5 µg/mL (≈ 44.3 µM)
[13]; water, comparative literature value in Table 16
  Solubility: 14.5 µg/mL (≈ 44.3 µM)
[14]; 1 minute
  solubility at 1 minute: 1 µg/mL (≈ 3.05 µM)
[14]; 1 hour
  solubility at 1 hour: 60 µg/mL (≈ 183 µM)
[7]; carboxylic acid group of tranilast
  pKa: 3.25
[15]
  solid-state photostability (in words): photostable
[16]
  plasma concentrations of the drug: 30 to 300 µM

## COc1ccc(/C=C/C(=O)Nc2ccccc2C(=O)O)cc1OC [crystalline 1:1 tranilast sodium salt]
[1]; simulated intestinal fluid (FaSSIF V2), thermodynamic from solid, 20 minutes
  solubility at 20 minutes: 300 µg/mL
[17]
  apparent solubility relative to pure crystalline tranilast (in words): lower apparent solubility than pure tranilast
[17]; listed as crystalline tranilast sodium salt
  apparent solubility relative to pure crystalline tranilast (in words): even less than that of pure tranilast
